Results reported in patent publication US12391692B2, “Spiro ring-containing quinazoline compound” (WIGEN BIOMEDICINE TECHNOLOGY (SHANGHAI) CO., LTD., priority 2020, dated 2025).

What was measured:
pERK level in H358 cells = assay: pERK and ERK protein content assay in H358 cells (ELISA); type: cell-based; settings: Homo sapiens, NCI-H358, pERK/ERK ratio vs DMSO group, compound 1 μM, 24 h, read-out: Inhibition rate (%)
Method in brief: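 Percent inhibition of pERK relative to DMSO, from the ELISA pERK/ERK ratio in lysed H358 cells. Compound applied at 1 μM for 24 h after one day of growth.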

[1] = system: human pancreatic cancer Mia PaCa-2 xenograft tumors; assay: Antitumor activity in mice, Mia PaCa-2 xenograft; type: in vivo; settings: Mia PaCa-2 xenograft in nude mice
Protocol: Human pancreatic cancer Mia PaCa-2 cells were cultured conventionally in 1640 medium containing 10% fetal bovine serum in a 37° C./5% CO2 incubator. After being subcultured, the cells were collected when they reached the desired amount. 1×10^7 Mia PaCa-2 cells were injected into the left dorsal side of each nude mouse, and the animals were randomly grouped for administration after tumors grew to 150 mm^3. The groups were as follows: 1) solvent control group, 8 mice; 2) compound 6 group, compound 14 group, compound 28 group, compound 44 group, compound 60 group, compound 103 group and control drug B (Example 35 in WO2018/143315), 8 mice in each group. The mice in the solvent control group was intragastrically administered with 0.5% CMC-Na once a day; and the mice in the compound groups were intragastrically administered with 0.5% CMC-Na suspension once a day. On Tuesday and Thursday each week, tumor volumes and body weight of the mice were measured, and the nude mice were sacrificed on day 21 during the treatment period.

H358 cells = assay: Antiproliferative activity against H358 cells (Cell Titer Glow, ultra-low attachment plate); type: cell-based; settings: Homo sapiens, NCI-H358, 72 h, three days after addition of compound
Protocol: 2500 H358 cells were seeded in a 96-well ultra-low attachment plate (corning, 7007). After one day of growth, a serially diluted compound (a maximum concentration of 5 μM, 5-fold dilution, a total of five doses) was added. Three days after the addition of the compound, Cell Titer Glow (Promega, G9681) was added to evaluate pellet growth, and the IC50 value was calculated.

Row | Compound | inhibition at 1 µM (pERK level in H358 cells) [%] | Anti-tumor effect (regression) ([1]; 10 mg/kg, qd*21, intragastric) [% regression] | in vivo activity compared with control drug B ([1]; 10 mg/kg/day, 21 days) | IC50 (H358 cells) [nM]
1 | C=CC(=O)N1CC2(CCN(c3nc(N4CC(OC5CN(C)C5)C4)nc4c(OCC(F)(F)F)c(-c5c(C)ccc6[nH]ncc56)c(C5CC5)cc34)CC2)C1 [Compound 14] | > 90 | 37 | stronger in vivo activity than the control drug B | < 300
2 | C=CC(=O)N1CC2(CCN(c3nc(O[C@H]4C[C@@H](N5CCCC5)C4)nc4c(OCC(F)(F)F)c(-c5c(C)ccc6[nH]ncc56)c(C5CC5)cc34)CC2)C1 [Compound 89] | > 90 | – | – | < 300
3 | C=CC(=O)N1CC2(CCN(c3nc(N4CCC5(CCN5C)C4)nc4c(OCC(F)(F)F)c(-c5c(C)ccc6[nH]ncc56)c(C5CC5)cc34)CC2)C1 (stereo not shown) [Compound 77] | > 90 | – | – | < 300
4 | C=CC(=O)N1CC2(CCN(c3nc(N4CC5(CCN5CC5CC5)C4)nc4c(OCC(F)(F)F)c(-c5c(C)ccc6[nH]ncc56)c(C5CC5)cc34)CC2)C1 [Compound 69] | > 90 | – | – | < 300
5 | C=CC(=O)N1CCC2(CC1)CN(c1nc(N3CC(N4CC5(CC5)C4)C3)nc3c(OCC(F)(F)F)c(-c4c(C)ccc5[nH]ncc45)c(C4CC4)cc13)C2 [Compound 102] | > 90 | – | – | < 300
6 | C=CC(=O)N1CC2(CCN(c3nc(N4CC5(CCN5CCOC)C4)nc4c(OCC(F)(F)F)c(-c5c(C)ccc6[nH]ncc56)c(C5CC5)cc34)CC2)C1 [Compound 72] | > 90 | – | – | < 300
7 | C=CC(=O)N1CC2(CCN(c3nc(N4CC5(CC(O)CN5CC)C4)nc4c(OCC(F)(F)F)c(-c5c(C)ccc6[nH]ncc56)c(C5CC5)cc34)CC2)C1 (stereo not shown) [Compound 122] | > 90 | – | – | < 300
8 | C=CC(=O)N1CC2(CCN(c3nc(O[C@H]4C[C@H](N5CCC5)C4)nc4c(OCC(F)(F)F)c(-c5c(C)ccc6[nH]ncc56)c(C5CC5)cc34)CC2)C1 [Compound 88] | 50 to 90 | – | – | 300 to 1000
9 | C=CC(=O)N1CC2(CCN(c3nc(N4CC(N5CC6(CCC6)C5)C4)nc4c(OCC(F)(F)F)c(-c5c(C)ccc6[nH]ncc56)c(C5CC5)cc34)CC2)C1 [Compound 29] | > 90 | – | – | < 300
10 | C=CC(=O)N1CC2(CCN(c3nc(N4CC(OC5CCC5)C4)nc4c(OCC(F)(F)F)c(-c5c(C)ccc6[nH]ncc56)c(C5CC5)cc34)CC2)C1 [Compound 13] | > 90 | – | – | < 300
11 | C=CC(=O)N1CC2(CCN(c3nc(N4CC(N5CCC6(CC6)C5)C4)nc4c(OCC(F)(F)F)c(-c5c(C)ccc6[nH]ncc56)c(C5CC5)cc34)CC2)C1 [Compound 35] | > 90 | – | – | < 300
12 | C=CC(=O)N1CC2(CCN(c3nc(N4CC(COC5CC5)C4)nc4c(OCC(F)(F)F)c(-c5c(C)ccc6[nH]ncc56)c(C5CC5)cc34)CC2)C1 [Compound 10] | > 90 | – | – | < 300
13 | C=CC(=O)N1CC2(CCN(c3nc(N4CC(CN(C)CCOC)C4)nc4c(OCC(F)(F)F)c(-c5c(C)ccc6[nH]ncc56)c(C5CC5)cc34)CC2)C1 [Compound 5] | > 90 | – | – | < 300
14 | C=CC(=O)N1CC2(CCN(c3nc(N4CC(CN(C)C)C4)nc4c(OCC(F)(F)F)c(-c5c(C)ccc6[nH]ncc56)c(C5CC5)cc34)CC2)C1 [Compound 1, 1-(7-(6-cyclopropyl-2-(3-((dimethylamino)methyl)azetidin-1-yl)-7-(5-methyl-1H-indazol-4-yl)-8-(2,2,2-trifluoroethoxy)quinazolin-4-yl)-2,7-diazaspiro[3.5]non-2-yl)prop-2-en-1-one] | > 90 | – | – | < 300
15 | C=CC(=O)N1CC2(CCN(c3nc(N4CC(OC5CC5)C4)nc4c(OCC(F)(F)F)c(-c5c(C)ccc6[nH]ncc56)c(C5CC5)cc34)CC2)C1 [Compound 12] | > 90 | – | – | < 300
16 | C=CC(=O)N1CC2(CCN(c3nc(N4CC(N5CCSCC5)C4)nc4c(OCC(F)(F)F)c(-c5c(C)ccc6[nH]ncc56)c(C5CC5)cc34)CC2)C1 [Compound 25] | > 90 | – | – | 300 to 1000
17 | C=CC(=O)N1CC2(CCN(c3nc(N4CCC5(CCCN5C)CC4)nc4c(OCC(F)(F)F)c(-c5c(C)ccc6[nH]ncc56)c(C5CC5)cc34)CC2)C1 [Compound 79] | > 90 | – | – | < 300
18 | C=CC(=O)N1CC2(CCN(c3nc(N4CC5(CCCN5CCF)C4)nc4c(OCC(F)(F)F)c(-c5c(C)ccc6[nH]ncc56)c(C5CC5)cc34)CC2)C1 [Compound 118] | > 90 | – | – | < 300
19 | C=CC(=O)N1CC2(CCN(c3nc(O[C@H]4C[C@@H](N5CCC(F)(F)C5)C4)nc4c(OCC(F)(F)F)c(-c5c(C)ccc6[nH]ncc56)c(C5CC5)cc34)CC2)C1 [Compound 91] | > 90 | – | – | < 300

Row | Compound | inhibition at 1 µM (pERK level in H358 cells) [%] | Anti-tumor effect (regression) ([1]; 10 mg/kg, qd*21, intragastric) [% regression] | in vivo activity compared with control drug B ([1]; 10 mg/kg/day, 21 days) | IC50 (H358 cells) [nM]
20 | C=CC(=O)N1CC2(CCN(c3nc(O[C@H]4C[C@@H](N5CC6(CC6)C5)C4)nc4c(OCC(F)(F)F)c(-c5c(C)ccc6[nH]ncc56)c(C5CC5)cc34)CC2)C1 [Compound 93] | > 90 | – | – | < 300
21 | C=CC(=O)N1CC2(CCN(c3nc(O[C@H]4C[C@H](N5CC6(CCC6)C5)C4)nc4c(OCC(F)(F)F)c(-c5c(C)ccc6[nH]ncc56)c(C5CC5)cc34)CC2)C1 [Compound 96] | > 90 | – | – | 300 to 1000
22 | C=CC(=O)N1CC2(CCN(c3nc(N4CC(C)(CN5CCC5)C4)nc4c(OCC(F)(F)F)c(-c5c(C)ccc6[nH]ncc56)c(C5CC5)cc34)CC2)C1 [Compound 63] | > 90 | – | – | < 300
23 | C=CC(=O)N1CC2(CCN(c3nc(N4CCC(N5CC6(CC6)C5)CC4)nc4c(OCC(F)(F)F)c(-c5c(C)ccc6[nH]ncc56)c(C5CC5)cc34)CC2)C1 [Compound 38] | > 90 | – | – | 300 to 1000
24 | C=CC(=O)N1CC2(CCN(c3nc(N4CC(C(=O)N5CCN(C)CC5)C4)nc4c(OCC(F)(F)F)c(-c5c(C)ccc6[nH]ncc56)c(C5CC5)cc34)CC2)C1 [Compound 46] | > 90 | – | – | < 300
25 | C=CC(=O)N1CC2(CCN(c3nc(N4CC(C)(N5CCCC5)C4)nc4c(OCC(F)(F)F)c(-c5c(C)ccc6[nH]ncc56)c(C5CC5)cc34)CC2)C1 [Compound 61] | > 90 | – | – | < 300
26 | C=CC(=O)N1CC2(CCN(c3nc(O[C@H]4C[C@H](N5CC6(CC6)C5)C4)nc4c(OCC(F)(F)F)c(-c5c(C)ccc6[nH]ncc56)c(C5CC5)cc34)CC2)C1 [Compound 94] | 50 to 90 | – | – | 300 to 1000
27 | C=CC(=O)N1CC2(CCN(c3nc(N4CC(N(CC)CCO)C4)nc4c(OCC(F)(F)F)c(-c5c(C)ccc6[nH]ncc56)c(C5CC5)cc34)CC2)C1 [Compound 22] | > 90 | – | – | < 300
28 | C=CC(=O)N1CC2(CCN(c3nc(N4CC(CC#N)(N(C)C)C4)nc4c(OCC(F)(F)F)c(-c5c(C)ccc6[nH]ncc56)c(C5CC5)cc34)CC2)C1 [Compound 51] | > 90 | – | – | < 300
29 | C=CC(=O)N1CC2(CCN(c3nc(N4CC(N5CC6(CC6)C5)C4)nc4c(OCC(F)(F)F)c(-c5c(C)ccc6[nH]nc(C)c56)c(C5CC5)cc34)CC2)C1 [Compound 106] | > 90 | – | – | < 300
30 | C=CC(=O)N1CC2(CCN(c3nc(N4CCC(CC#N)(N5CCC5)CC4)nc4c(OCC(F)(F)F)c(-c5c(C)ccc6[nH]ncc56)c(C5CC5)cc34)CC2)C1 [Compound 58] | > 90 | – | – | < 300
31 | C=CC(=O)N1CC2(CCN(c3nc(N4CC5(CC5)C4)nc4c(OCC(F)(F)F)c(-c5c(C)ccc6[nH]ncc56)c(C5CC5)cc34)CC2)C1 [Compound 65] | 50 to 90 | – | – | 300 to 1000
32 | C=CC(=O)N1CC2(CCN(c3nc(N4CC5(CCCN5CC)C4)nc4c(OCC(F)(F)F)c(-c5c(C)ccc6[nH]ncc56)c(C5CC5)cc34)CC2)C1 [Compound 116] | > 90 | – | – | < 300
33 | C=CC(=O)N1CC2(CCN(c3nc(N4CC(N5CC6(CC6)C5)C4)nc4c(OCC(F)(F)F)c(-c5c(C)c(F)cc6[nH]ncc56)c(C5CC5)cc34)CC2)C1 [Compound 104] | > 90 | – | – | < 300
34 | C=CC(=O)N1CC2(CCN(c3nc(N4CC5(CN(CCOC)CCO5)C4)nc4c(OCC(F)(F)F)c(-c5c(C)ccc6[nH]ncc56)c(C5CC5)cc34)CC2)C1 [Compound 82] | > 90 | – | – | < 300
35 | C=CC(=O)N1CC2(CCN(c3nc(N4CC(N5CCC6(CC6)C5)C4)nc4c(OCC(F)(F)F)c(-c5c(C)ccc6[nH]ncc56)c(CC)cc34)CC2)C1 [Compound 114] | > 90 | – | – | < 300
36 | C=CC(=O)N1CC2(CCN(c3nc(N4CC(CC#N)(N(C)CCOC)C4)nc4c(OCC(F)(F)F)c(-c5c(C)ccc6[nH]ncc56)c(C5CC5)cc34)CC2)C1 [Compound 53] | > 90 | – | – | < 300
37 | C=CC(=O)N1CC2(CCN(c3nc(N4CC(N5CC6(CC6)C5)C4)nc4c(OCC(F)(F)F)c(-c5c(C)ccc6[nH]cnc56)c(C5CC5)cc34)CC2)C1 [Compound 107] | > 90 | – | – | < 300
